Results reported in publication PMC6941357, “An in vitro toolbox to accelerate anti-malarial drug discovery and development” (Malaria Journal, 2020).
≈ marks a conversion by molar mass, not a printed value. Where “and” joins values, the source holds several entries; their conditions need not be identical. Equal entries are not always repeated.

What was measured:
[1] = Ionization constants by potentiometric titration; format: physicochemical; conditions: aqueous solution (DMSO stock diluted 1:10 with water), basic pKa (B), mean ± SD, n = 3 titrations, read-out: Measured pKa
Procedure: The autotitrator was controlled by Tiamo software (Version 1.3). pH measurements were conducted using a Metrohm LL Micro glass electrode which was calibrated on the day of use with calibration standards at pH 2, 4, 7 and 10. All reagents were standardized (directly or indirectly) against potassium hydrogen phthalate (Sigma-Aldrich, A.C.S. Acidimetric Standard). Titrant solutions were protected from carbon dioxide absorption by flushing with nitrogen before sealing or by the incorporation of a drying tube filled with self-indicating soda lime into the titration reaction vessel set-up.
Aliquots were introduced directly into the titration vessel and diluted 1:10 with water (typical final compound concentration of 0.5 mM).

[2] = Octanol/pH 7.4 buffer partition coefficient, shake flask; conditions: pH 7.4
Procedure: Partition coefficients between octanol and pH 7.4 buffer were measured using a shake flask method. A stock solution of test compound in octanol was prepared at a concentration between 3 and 30 mg/mL based on the expected partition coefficient value. This stock solution was then diluted 3- and 10-fold with octanol and used to prepare the octanol phase for the partitioning experiments. Two different dilutions were used to confirm that there were no saturation effects. Phosphate buffered saline was prepared by combining 67 mM disodium hydrogen orthophosphate and sodium dihydrogen orthophosphate (both prepared in 43 mM NaCl) to a final pH of 7.4.
Partitioning experiments were conducted by mixing equal volumes of the octanol (containing test compound) and aqueous phases and placing on a vibrating plate mixer in an incubator at 37 °C. […] An aliquot of the aqueous phase was carefully removed and centrifuged again to ensure no contamination from the octanol phase before sampling in duplicate and diluting with aqueous methanol for analysis. Diluted samples were analysed by LC–MS along with calibration standards (Additional file 1: Table S2) and partition coefficients were calculated from the ratio of the mean octanol to buffer concentration after accounting for the dilution factors. The partitioning results for the two time points were used to confirm that the partitioning experiment had reached equilibrium.

[3] = Plasma protein binding via ultracentrifugation (UC); format: in vitro ADME, human; conditions: human, neat pooled plasma, pH 7.4; ultracentrifugation, neat plasma; read-out: Fraction unbound, human plasma
Procedure: (§1) Pooled human plasma (n = 3–4 donors) was obtained by centrifugation of blood (collected by the Australian Red Cross Blood Service, Melbourne, Australia or the Volunteer Blood Donor Registry, Clinical Translation Centre, Walter & Eliza Hall Institute of Medical Research, Parkville, Australia), or sourcing pooled plasma directly from commercial sources (Innovative Research Inc, MI) and stored frozen at − 80 °C.
(§2) An ultracentrifugation method adapted from a previous publication was initially used to assess plasma protein binding and binding in the other media. […] Additional ultracentrifuge tubes containing spiked matrix were maintained at 37 °C, 5% or 10% CO2 or normal atmosphere conditions, with aliquots being taken within 0.5 h of the start and at the end of ultracentrifugation to serve as controls for the assessment of stability and to obtain a measure of the total concentration (Ctotal). Following ultracentrifugation, the pH was checked and an aliquot of protein-free supernate was taken from each ultracentrifuge tube for determination of the unbound concentration (Cunbound).
(§3) Total matrix and protein free samples were analysed using a matrix matching approach whereby each sample was mixed in a 1:1 ratio with the opposite blank medium (i.e. blank total matrix or blank protein free buffer). For example, plasma samples were mixed with blank pH 7.4 buffer whereas plasma supernatant samples were mixed with blank plasma. Each of the sample sets were then assayed against a common calibration curve prepared in a 1:1 mixture of total matrix and protein free pH 7.4 buffer. […] The standard deviation for fu was calculated using the propagation of errors approach as described previously. The potential for compound degradation was assessed by comparing the average value for Ctotal at the start and end of the experiment.

[4] = Plasma protein binding via rapid equilibrium dialysis (RED), 10% plasma; format: in vitro ADME, human; conditions: human, 10% pooled plasma (diluted 1:10), pH 7.4, RED, 10% plasma corrected for dilution, 6 h dialysis
Procedure: as §1
Plasma was diluted 1:10 with pH 7.4 phosphate buffer (prepared by mixing 0.1 M sodium dihydrogen phosphate and 0.1 M disodium hydrogen phosphate (both containing 0.04 M NaCl) to pH 7.4) and spiked with compound to achieve a total measured concentration of ~ 1000–3000 ng/mL. Diluted plasma was vortex mixed briefly and aliquots (n = 3–4) were transferred to RED (Thermo Fisher Scientific, Waltham, MA) units that were placed at 37 °C under ambient atmosphere on a plate shaker. […] At the end of the dialysis period, samples were removed from both the donor and dialysate chambers of the RED units. […] Fraction unbound values were calculated for each individual RED unit and the mean and SD calculated for n = 3–4 replicates.
Briefly, the RED device was exposed for two 30 min periods and one overnight period to fresh solutions of compound prepared in pH 7.4 buffer at approximately 10% of the total dialysis concentration. Following the preincubations, solutions were removed from the RED device and discarded. […] Samples were removed and analysed as described above.
For binding assessments using 10% plasma, the unbound fraction (fu) in neat plasma was calculated using the average values for Ctotal and Cunbound and Eq.

[5] = target: T1, Albumax medium (lipid rich bovine serum albumin) (Bos taurus, UniProt P02769); experiment: Binding in Albumax medium via ultracentrifugation; format: in vitro ADME; conditions: bovine, Albumax medium, pH 7.4
T1 construct: purchased Gibco, Thermo Fisher Scientific
Procedure: as §2, §3

[6] = Binding to human liver microsomes via ultracentrifugation; format: in vitro ADME; conditions: human, liver microsomes, pH 7.4, 0.4 mg/mL protein, read-out: Fraction unbound, HLM
Procedure: A suspension of human liver microsomes (HLM, XenoTech LLC, Lenexa, KS, USA) was prepared in 0.1 M phosphate buffer (pH 7.4) at a protein concentration of 0.4 mg/mL immediately prior to the experiment.
as §2, §3

[7] = in vitro; conditions: human, microsomes
Procedure: (§4) The metabolic stability assay was adapted from a previously published method. […] Reactions were quenched at 2, 5, 15, 30 and 60 min by the addition of acetonitrile containing 150 ng/mL diazepam as internal standard. Control samples (containing no cofactor) were included (quenched at 2, 30 and 60 min) to monitor degradation in the absence of cofactor. Concentrations were determined by LC–MS (Additional file 1: Table S2) by comparison to the response for a single point calibration standard prepared in quenched microsomal matrix.
(§5) Test compound concentration versus time data were fit using an exponential decay function to determine the first-order rate constant for substrate depletion. Where deviation from first-order kinetics was evident, only the initial linear portion of the logarithmic profile was utilized to determine the initial degradation rate constant (k, min^−1). Each substrate depletion rate constant was then used to calculate the in vitro intrinsic clearance value (CLint, in vitro, µL/min/mg protein) using Eq.
(§6) Unbound in vitro CLint values were obtained by dividing the measured CLint by the measured fu in microsomes.

[8] = tested on: human liver microsomes; experiment: in vitro; conditions: human, 1 µM, pH 7.4
Procedure: as §4, §5, §6

[9] = target: CYP3A4 (Homo sapiens, UniProt P08684); experiment: Cytochrome P450 inhibition in human liver microsomes; conditions: highest concentration tested 20 µM
Procedure: The CYP inhibition assay was based on a previous publication with minor modifications. The method uses human liver microsomes and a substrate-specific interaction approach which relies on the formation of a metabolite that is mediated by a specific CYP isoform. The specific CYP-mediated metabolic pathways, substrates, substrate Km values, positive control inhibitors and specific incubation conditions are shown in Additional file 1: Table S4. […] Samples were quenched by the addition of ice-cold acetonitrile containing diazepam as the analytical internal standard. Concentrations of the substrate-specific metabolites in quenched samples were determined by LC–MS (Additional file 1: Table S5) relative to calibration standards prepared in quenched microsomal matrix.
The inhibitory effect of each test compound and positive control inhibitor was based on the reduction in the formation of the specific CYP-mediated metabolite (represented as percent inhibition of enzyme activity) relative to metabolite formation in the absence of inhibitor (i.e. control for maximal enzyme activity). […] The Km was determined under the same incubation conditions by measuring the rate of metabolite formation (pmol/min/mg protein) as a function of substrate concentration (Additional file 1: Table S4).

[10] = tested on: Caco-2 cell monolayers; conditions: cited from earlier work
[11] = tested on: human plasma; conditions: methods UF, ED, EP or not described per compound, ref [6]–[22] of Additional file 1; cited from earlier work
[12] = Solubility in biorelevant media
Procedure: Solubility of each active pharmaceutical ingredient was evaluated at 37 °C in pH 7.4 phosphate buffered saline (prepared as described for the partitioning experiments), fasted (FaSSIF-V2) and fed (FeSSIF-V2) state simulated intestinal fluids and fasted state simulated gastric fluid (FaSSGF) as described by Jantratid et al.. […] Samples were vortexed and placed in a 37 °C incubator on an orbital mixer (IKA® VXR basic Vibrax® orbital mixer) set at 600 rpm. Sampling times were 1 h for FaSSGF or 5–6 h for FaSSIF-V2, FeSSIF-V2, and PBS. These times were used to reflect the maximal likely residence times within the stomach and small intestine, respectively. Sampling was carried out by centrifuging each sample at 10,000 rpm for 3 min, transferring 300 µL aliquots into fresh Eppendorf tubes and centrifuging these tubes again at 10,000 rpm for 3 min. Triplicate aliquots of the supernatant were then removed and diluted 1:2 in 50% aqueous methanol and then again in 50% aqueous acetonitrile to be within the analytical concentration range. Samples were analysed by LC–MS along with calibration standards (Additional file 1: Table S2).

[13] = Bidirectional permeability across Caco-2 cell monolayers; conditions: human
Procedure: Bidirectional permeability was assessed across Caco-2 cell monolayers as described previously. Briefly, permeability experiments were performed using either aqueous transport buffer (pH 7.4 Hanks balanced salt solution containing 20 mM HEPES) or human plasma (Australian Red Cross Blood Service) in both the apical and basolateral chambers. […] The final DMSO concentration in the donor solution was 0.1% v/v.
Samples from the donor chamber were taken at the start and end of the experiment. […] Donor and acceptor samples were stored frozen at − 80 °C until analysis by LC–MS (Additional file 1: Table S2) with sample preparation as described previously. The mass balance and apparent permeability coefficient (Papp) were calculated as previously described.
Where human plasma was used as the transport medium, Papp values were calculated as shown above, with correction for the fraction unbound (fu) in the donor solution Cdonorinitial×fu with fu determined at a similar concentration to that used in the transport experiment. The apparent flux of lucifer yellow was based on an endpoint measurement assuming no lag time. The efflux ratio was calculated as the ratio of the mean B–A to A–B Papp values.

[14] = Solubility limited absorbable dose (SLAD) calculation with predicted human jejunal Peff
Text: Predicted Peff values were obtained from a calibration plot of literature Peff values vs measured Caco-2 Papp using either buffer or plasma as the transport medium (see Results section).

[15] = human; cited from earlier work
[16] = tested on: human liver microsomes; conditions: microsomal protein 0.5 mg/mL; ref [23]–[28] of Additional file 1; cited from earlier work
[17] = matrix: human plasma, corrected for fu

CYP3A4, sequence (P08684 whole entry, canonical isoform): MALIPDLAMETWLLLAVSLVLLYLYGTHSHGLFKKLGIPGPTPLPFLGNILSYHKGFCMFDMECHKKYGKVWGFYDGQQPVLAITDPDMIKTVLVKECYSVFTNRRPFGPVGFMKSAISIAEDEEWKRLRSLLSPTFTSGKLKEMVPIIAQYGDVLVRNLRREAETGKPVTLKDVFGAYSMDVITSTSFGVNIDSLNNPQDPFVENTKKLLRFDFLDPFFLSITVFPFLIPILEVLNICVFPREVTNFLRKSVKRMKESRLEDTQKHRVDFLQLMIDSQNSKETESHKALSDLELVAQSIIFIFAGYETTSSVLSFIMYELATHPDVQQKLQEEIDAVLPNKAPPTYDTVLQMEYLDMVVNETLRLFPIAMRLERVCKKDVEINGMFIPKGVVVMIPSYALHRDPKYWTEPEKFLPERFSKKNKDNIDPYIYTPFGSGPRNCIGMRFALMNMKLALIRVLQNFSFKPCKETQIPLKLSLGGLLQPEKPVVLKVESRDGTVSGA
T1 sequence (P02769 25-607): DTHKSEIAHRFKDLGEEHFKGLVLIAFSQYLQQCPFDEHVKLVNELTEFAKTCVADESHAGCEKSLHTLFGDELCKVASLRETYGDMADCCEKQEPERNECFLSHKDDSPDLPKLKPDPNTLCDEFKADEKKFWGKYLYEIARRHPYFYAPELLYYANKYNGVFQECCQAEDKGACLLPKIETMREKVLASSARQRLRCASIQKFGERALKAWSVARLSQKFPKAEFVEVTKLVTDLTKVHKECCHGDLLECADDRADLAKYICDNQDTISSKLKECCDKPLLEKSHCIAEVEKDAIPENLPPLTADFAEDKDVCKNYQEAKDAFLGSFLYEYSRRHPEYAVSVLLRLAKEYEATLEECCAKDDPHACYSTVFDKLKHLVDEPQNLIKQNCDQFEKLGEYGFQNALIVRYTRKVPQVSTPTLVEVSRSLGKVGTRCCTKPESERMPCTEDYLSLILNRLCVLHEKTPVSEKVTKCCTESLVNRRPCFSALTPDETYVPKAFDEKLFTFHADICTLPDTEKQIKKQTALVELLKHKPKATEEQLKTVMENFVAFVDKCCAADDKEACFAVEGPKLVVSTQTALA

CCN(CC)Cc1cc(Nc2ccnc3cc(Cl)ccc23)ccc1O [Amodiaquine]
pKa [1]: 7 ± 0.02
logD ([2]; octanol/pH 7.4 buffer): 2.95
fraction unbound at […] [3]: 0.089 ± 0.008
fraction unbound at 6 h [4]: 0.086
fraction unbound at […], 500 ng/mL [5]: 0.67 ± 0.033
fraction unbound at […] [6]: 0.91 ± 0.094
microsomal CLint at 1 µM ([7]; pH 7.4, HLM CLint): 308 µL/min/mg
Unbound CLint [8]: 339 µL/min/mg
IC50 ([9]; CYP3A4 (midaz) IC50, human liver microsomes, CYP3A4 (midaz)): > 20 µM
IC50 ([9]; CYP3A4 (test) IC50, human liver microsomes, CYP3A4 (test)): > 20 µM
Literature ER ([10]; Caco-2, ref [33], [35] of Additional file 1): 1.3
Literature Papp ([10]; Caco-2 A-B, ref [33]–[35] of Additional file 1): 16.0 ± 1.1 10-6 cm/sec
A–B Papp [10, 17]: 90 ± 8.3 10^−6 cm/s
B–A Papp [10, 17]: 63 ± 9.6 10^−6 cm/s
Literature fu [11]: < 0.1

c1cc([C@H]2CC[C@]3(CC2)OO[C@]2(O3)C3CC4CC(C3)CC2C4)ccc1OCCN1CCOCC1 [OZ439]
logD ([2]; octanol/pH 7.4 phosphate buffered saline): > 5
FaSSGF solubility ([12]; FaSSGF): 79 µg/mL
solubility at 1 h ([12]; FaSSGF, 37 °C, fassgf or other biorelevant, thermodynamic from solid): 79 µg/mL and 168 µM
FaSSIF solubility ([12]; FaSSIF): 40.6 µg/mL
solubility ([12]; FaSSIF-V2, 37 °C, fassif, thermodynamic from solid): 40.6 µg/mL and 87 µM
solubility ([12]; FeSSIF-V2, 37 °C, fessif, thermodynamic from solid): 526 µg/mL and 1120 µM
solubility ([12]; phosphate buffered saline pH 7.4, 37 °C, pH 7.4, aqueous buffer, thermodynamic from solid): 0.085 µg/mL and 0.181 µM
Papp B→A ([13]; Caco-2): > 300 ×10⁻⁶ cm/s
Papp A→B ([13]; Caco-2, A–B Papp, matrix: human plasma, corrected for fu): > 300 ×10⁻⁶ cm/s
solubility ([14]; FaSSIF): 40.6 µg/mL (≈ 86.5 µM)
An (absorption number) ([14]; Peff × tres/R, minimum 1): 13
SLAD ([14]; Ssi × V (500 mL) × Mp): 270 mg
Predicted human Peff ([14]; from Caco-2 Papp via calibration plot): 11 10^−4 cm/s
Food effect [15]: yes
V/F [15]: 1570 L

Cc1ncc2n1-c1ccc(Cl)cc1C(c1ccccc1F)=NC2 [midazolam]
microsomal CLint at 1 µM ([7]; pH 7.4, Mean CLint, control compounds, mean (S.D.)): 272 µL/min/mg
microsomal CLint at 1 µM ([7]; pH 7.4, Range HLM CLint, control compounds, 6–21 independent measurements, 0.4 mg/mL): 240 to 300 µL/min/mg
Literature CLint [16]: 353 µL/min/mg and 178 µL/min/mg and 287 µL/min/mg

CCOc1ccc(NC(C)=O)cc1 [phenacetin]
microsomal CLint at 1 µM ([7]; pH 7.4, Mean CLint): 21.4 µL/min/mg
microsomal CLint at 1 µM ([7]; pH 7.4, Range HLM CLint): 13.3 to 31.1 µL/min/mg
Literature CLint [16]: 27 µL/min/mg and 22.2 µL/min/mg
